Source: patent US20230089557A1, “METHODS OF TREATING DLBCL USING BTK INHIBITORS AND COMBINATIONS THEREOF” (BEIGENE SWITZERLAND GMBH, priority 2020, published 2023)

Tested on: R/R non-GCB DLBCL
Test: Compound 1 in combination with anti-CD20 antibody in patients with R/R non-GCB DLBCL
Type: in vivo, human
Settings: for unadjusted ORR: non-GCB DLBCL
Description: A total of 121 patients with R/R non-GCB DLBCL were recruited in four Compound 1 treatment studies that were conducted at a similar time period. Two of the four studies were Compound 1 monotherapy (n=79) and two were Compound 1 combined with an anti-CD20 antibody therapy (n=42). Similar inclusion and exclusion criteria and response evaluation criteria were used across all studies. Fifty-six non-GCB patients were further subtyped by gene expression profiling (GEP) using the HTG EdgeSeq DLBCL Cell of Origin Assay. The expression of approximately 90 lymphoma-associated genes from the HTG GEP assay were analyzed by R package limma for correlation with response to Compound 1 treatment. Seventy-seven patient samples were tested by next-generation sequencing (NGS) with a panel of genes. Chi-square test was used to evaluate the correlation between mutations and the objective response rate (ORR).
Combination therapy schedule 1: Compound 1 was administered orally every day in each cycle at 160 mg BID in 28-day cycles, in combination with obinutuzumab, in patients with R/R non-GCB DLBCL. Obinutuzumab was administered for up to 6 cycles consistent with the U.S. label regimen (100 mg at Day 1 Cycle 1, 1000 mg at Day 8 and Day 15, 900 mg at Day 2 Cycle 1 followed by 1000 mg on day one of cycles 2-6).
Combination therapy schedule 2: Compound 1 was administrated orally every day in each cycle at 160 mg BID in 28-day cycles, in combination with rituximab, in patients with R/R non-GCB DLBCL. Rituximab was administered at 375 mg/m2 intravenously on Cycle 1 Days 1, 8, 15, 22, and on Day 1 of Cycles 4, 6, 8, 10. Compound 1 was administered at least 30 minutes prior to the initiation of the rituximab infusion.
42 patients with non-GCB DLBCL were subjected to Compound 1 plus anti-CD20 antibody Combination therapy schedule 1 or 2.

[1] = combination therapy Total (N = 42), ABC Subtype of DLBCL Patients
[2] = combination therapy Total (N = 42), CD79B ITAM_Mut
[3] = combination therapy Total (N = 42), CD79B ITAM_WT
[4] = combination therapy Total (N = 42), CD79B_Mut
[5] = combination therapy Total (N = 42), CD79B_WT
[6] = combination therapy Total (N = 42), MYD88_L265P
[7] = combination therapy Total (N = 42), MYD88_L265P/CD79B_Mut
[8] = combination therapy Total (N = 42), MYD88_WT
[9] = combination therapy Total (N = 42), NOTCH1_Mut
[10] = combination therapy Total (N = 42), NOTCH1_WT
[11] = combination therapy Total (N = 42), Non-GCB DLBCL Patients
[12] = combination therapy Total (N = 42), Non-GCB DLBCL Patients with Sequence Available
[13] = combination therapy Total (N = 42), Other (not MYD88_L265P/CD79B_Mut)
[14] = combination therapy Total (N = 42), Patients with Sequence Available
[15] = plus obinutuzumab (N = 22), ABC Subtype of DLBCL Patients
[16] = plus obinutuzumab (N = 22), CD79B ITAM_Mut
[17] = plus obinutuzumab (N = 22), CD79B ITAM_WT
[18] = plus obinutuzumab (N = 22), CD79B_Mut
[19] = plus obinutuzumab (N = 22), CD79B_WT
[20] = plus obinutuzumab (N = 22), MYD88_L265P
[21] = plus obinutuzumab (N = 22), MYD88_L265P/CD79B_Mut
[22] = plus obinutuzumab (N = 22), MYD88_WT
[23] = plus obinutuzumab (N = 22), NOTCH1_Mut
[24] = plus obinutuzumab (N = 22), NOTCH1_WT
[25] = plus obinutuzumab (N = 22), Non-GCB DLBCL Patients
[26] = plus obinutuzumab (N = 22), Non-GCB DLBCL Patients with Sequence Available
[27] = plus obinutuzumab (N = 22), Other (not MYD88_L265P/CD79B_Mut)
[28] = plus obinutuzumab (N = 22), Patients with Sequence Available
[29] = plus rituximab (N = 20), ABC Subtype of DLBCL Patients
[30] = plus rituximab (N = 20), CD79B ITAM_Mut
[31] = plus rituximab (N = 20), CD79B ITAM_WT
[32] = plus rituximab (N = 20), CD79B_Mut
[33] = plus rituximab (N = 20), CD79B_WT
[34] = plus rituximab (N = 20), MYD88_L265P
[35] = plus rituximab (N = 20), MYD88_L265P/CD79B_Mut
[36] = plus rituximab (N = 20), MYD88_WT
[37] = plus rituximab (N = 20), NOTCH1_Mut
[38] = plus rituximab (N = 20), NOTCH1_WT
[39] = plus rituximab (N = 20), Non-GCB DLBCL Patients
[40] = plus rituximab (N = 20), Non-GCB DLBCL Patients with Sequence Available
[41] = plus rituximab (N = 20), Other (not MYD88_L265P/CD79B_Mut)
[42] = plus rituximab (N = 20), Patients with Sequence Available

In the case of `C=CC(=O)N1CCC([C@@H]2CCNc3c(C(N)=O)c(-c4ccc(Oc5ccccc5)cc4)nn32)CC1` [Compound 1, (S)-7-(1-acryloylpiperidin-4-yl)-2-(4-phenoxyphenyl)-4,5,6,7-tetra-hydropyrazolo[1,5-a]pyrimidine-3-carboxamide], the ORR (GEP-confirmed activated B-cell DLBCL, first of the two combo-therapies (obinutuzumab)) is reported as 50%, the ORR (GEP-confirmed activated B-cell DLBCL, second of the two combo-therapies (rituximab)) is reported as 40% and the ORR [1] is reported as 45.5. For the same compound, the Response/Patients [1] was 5/11, the ORR [2] was 83.3 and the Response/Patients [2] was 5/6. For the same compound, the “Difference in ORR (95% CI)” value (combination therapy Total (N = 42), CD79B ITAM_Mut vs CD79B ITAM_WT) was 61.1, the ORR [3] was 22.2 and the Response/Patients [3] was 6/27. The ORR [4] was 75.0, the Response/Patients [4] was 6/8 and the “Difference in ORR (95% CI)” value (combination therapy Total (N = 42), CD79B_Mut vs CD79B_WT) was 55.0. The ORR [5] was 20.0, the Response/Patients [5] was 5/25 and the ORR [6] was 66.7. The Response/Patients [6] was 4/6, the “Difference in ORR (95% CI)” value (combination therapy Total (N = 42), MYD88_L265P vs MYD88_WT) was 40.7 and the ORR [7] was 75.0. The Response/Patients [7] was 3/4, the “Difference in ORR (95% CI)” value (combination therapy Total (N = 42), MYD88_L265P/CD79B_Mut vs Other) was 47.4 and the ORR [8] was 25.9. For the same compound, the Response/Patients [8] was 7/27, the ORR [9] was 40.0 and the Response/Patients [9] was 2/5. For the same compound, the “Difference in ORR (95% CI)” value (combination therapy Total (N = 42), NOTCH1_Mut vs NOTCH1_WT) was 7.9, the ORR [10] was 32.1 and the Response/Patients [10] was 9/28. For the same compound, the ORR [11] was 28.6, the Response/Patients [11] was 12/42 and the ORR [12] was 33.3. For the same compound, the Response/Patients [12] was 11/33, the ORR [13] was 27.6 and the Response/Patients [13] was 8/29. The ORR [14] was 35.3, the Response/Patients [14] was 12/34 and the “unadjusted ORR” value (first of the two combo-therapies (obinutuzumab)) was 22.7%. The “unadjusted ORR” value (second of the two combo-therapies (rituximab)) was 35%, the ORR [15] was 50.0 and the Response/Patients [15] was 3/6. The ORR [16] was 100.0, the Response/Patients [16] was 3/3 and the “Difference in ORR (95% CI)” value (plus obinutuzumab (N = 22), CD79B ITAM_Mut vs CD79B ITAM_WT, in %) was 91.7. The ORR [17] was 8.3, the Response/Patients [17] was 1/12 and the ORR [18] was 100.0. The Response/Patients [18] was 3/3, the “Difference in ORR (95% CI)” value (plus obinutuzumab (N = 22), CD79B_Mut vs CD79B_WT, in %) was 91.7 and the ORR [19] was 8.3. The Response/Patients [19] was 1/12, the ORR [20] was 100.0 and the Response/Patients [20] was 3/3. The “Difference in ORR (95% CI)” value (plus obinutuzumab (N = 22), MYD88_L265P vs MYD88_WT, in %) was 91.7, the ORR [21] was 100.0 and the Response/Patients [21] was 3/3. The “Difference in ORR (95% CI)” value (plus obinutuzumab (N = 22), MYD88_L265P/CD79B_Mut vs Other, in %) was 91.7, the ORR [22] was 8.3 and the Response/Patients [22] was 1/12. For the same compound, the ORR [23] was 66.7, the Response/Patients [23] was 2/3 and the “Difference in ORR (95% CI)” value (plus obinutuzumab (N = 22), NOTCH1_Mut vs NOTCH1_WT) was 50.0. The ORR [24] was 16.7, the Response/Patients [24] was 2/12 and the ORR [25] was 22.7. The Response/Patients [25] was 5/22, the ORR [26] was 26.7 and the Response/Patients [26] was 4/15. The ORR [27] was 8.3, the Response/Patients [27] was 1/12 and the ORR [28] was 31.3. The Response/Patients [28] was 5/16, the ORR [29] was 40.0 and the Response/Patients [29] was 2/5. The ORR [30] was 66.7, the Response/Patients [30] was 2/3 and the “Difference in ORR (95% CI)” value (plus rituximab (N = 20), CD79B ITAM_Mut vs CD79B ITAM_WT) was 33.3. For the same compound, the ORR [31] was 33.3, the Response/Patients [31] was 5/15 and the ORR [32] was 60.0. The Response/Patients [32] was 3/5, the “Difference in ORR (95% CI)” value (plus rituximab (N = 20), CD79B_Mut vs CD79B_WT) was 29.2 and the ORR [33] was 30.8. The Response/Patients [33] was 4/13, the ORR [34] was 33.3 and the Response/Patients [34] was 1/3. For the same compound, the “Difference in ORR (95% CI)” value (plus rituximab (N = 20), MYD88_L265P vs MYD88_WT) was −6.7, the ORR [35] was 0.0 and the Response/Patients [35] was 0/1. For the same compound, the “Difference in ORR (95% CI)” value (plus rituximab (N = 20), MYD88_L265P/CD79B_Mut vs Other) was −41.2, the ORR [36] was 40.0 and the Response/Patients [36] was 6/15. The ORR [37] was 0.0, the Response/Patients [37] was 0/2 and the “Difference in ORR (95% CI)” value (plus rituximab (N = 20), NOTCH1_Mut vs NOTCH1_WT) was −43.8. The ORR [38] was 43.8, the Response/Patients [38] was 7/16 and the ORR [39] was 35.0. The Response/Patients [39] was 7/20, the ORR [40] was 38.9 and the Response/Patients [40] was 7/18. The ORR [41] was 41.2, the Response/Patients [41] was 7/17 and the ORR [42] was 38.9. For the same compound, the Response/Patients [42] was 7/18.
